Test results published in patent US20100035943A1, “Oxa-and thiadiazoles and their use as metalloproteinase inhibitors” (VERNALIS (OXFORD) LTD, priority 2002, published 2010).
pIC50: −log10 of the molar value.

Key:
metalloelastase (MMP12) = metalloelastase (MMP12) (Homo sapiens, UniProt P39900); experiment: MMP12 enzyme inhibition assay (fluorogenic peptide substrate McaPLGLDpaAR); format: biochemical; conditions: protocol as for MMP9 assay
Protocol: Stock solutions were made up as follows: • Assay Buffer: 100 mM Tris-HCl pH 7.6 containing 100 mM NaCl, 10 mM CaCl2, and 0.05% Brij 35 • Substrate: 0.4 mM McaPLGLDpaAR (from Bachem) (0.437 mg/ml) stock solution in 100% DMSO (stored at −20° C.). Dilute to 8 μM in assay buffer. • Enzyme: Recombinant human 92 kDa gelatinase (MMP-9; APMA (4-aminophenyl • mercuric acetate)—activated if necessary) appropriately diluted in assay buffer.
Test Compounds were prepared initially as 10 mM compound solution in 100% DMSO, diluted to 1 mM in 100% DMSO, then serially diluted 3-fold in 100% DMSO across columns 1-10 of a 96-well microtitre plate Assay concentration range, 100 μM (column 1) to 5.1 nM (column 10)
The assay was performed in a total volume of 100 μl per well in 96-well microtitre plates. Activated enzyme (20 μl) was added to the wells followed by 20 μl of assay buffer. Appropriate concentrations of test compounds dissolved in 10 μl of DMSO were then added followed by 50 μl of McaPLGLDpaAR (8 μM, prepared by dilution of DMSO stock in assay buffer). For each assay ten concentrations of test compound were examined in duplicate. Control wells lack either enzyme or test compound. The reactions were incubated at 37° C. for 2 hours. The fluorescence at 405 nm was measured immediately with an SLT Fluostar fluorometer (SLT Labinstruments GmbH, Grödig, Austria) using 320 nm excitation, without stopping the reaction.
The effect of the test compound was determined from the dose response curve generated by the 10 duplicate concentrations of inhibitor. The IC50 (the concentration of compound required to give a 50% decrease in enzyme activity) was obtained by fitting data to the equation, Y=a+((b−a)/(1+(c/X)^d)). (Y=inhibition achieved for a particular dose; X=the dose in nM; a=minimum y or zero % inhibition; b=maximum y or 100% inhibition; c=is the IC50; d=is the slope). The result was rounded to one significant figure.
Compounds were tested for inhibitory activity against metalloelastase (MMP12) in an assay using a coumarin-labelled peptide substrate, (7-methoxycoumarin-4-yl)acetyl-Pro-Leu-Gly-Leu-(3-[2,4-dinitrophenyl]-L-2,3-diaminopropionyl)-Ala-Arg-NH2 (McaPLGLDpaAR) (Knight et al, FEBS Lett. 1992; 263-266). The protocol for this assay was as described for the MMP9 assay above.

[1] = test system: IL2-induced lymphocyte recruitment; experiment: IL2-induced peritoneal recruitment of lymphocytes; format: in vivo, C3H/HEN mice; conditions: mice, 15 min prior to IL2, cells counted 24 hours after IL2
Protocol: Administration of IL2 intraperitoneally causes migration of lymphocytes into the intraperitoneal cavity. This is a model for the cellular migration that occurs during inflammation.
C3H/HEN mice (Elevage Janvier, France) were intraperitoneally injected with IL2 (Serono Pharmaceutical Research Institute, 20 μg/kg, in saline). Compounds of the invention were suspended in 0.5% carboxymethylcellulose (CMC)/0.25% tween-20 and were administered by sc or po route (10 ml/kg) 15 min prior to administration of IL2.
Twenty-four hours after administration of IL2, peritoneal white blood cells were collected by 3 successive lavages of the peritoneal cavity with 5 ml phosphate buffered saline (PBS)-1 mM EDTA (+4° C.). The suspension was centrifuged (1700 g×10 min at +4° C.). The resulting pellet was suspended in 1 ml PBS-1 mM EDTA.
Lymphocytes were identified and counted using a Beckman/Coulter counter.
The animals were divided into 5 groups (6 mice each group):
Group 1: (baseline) received 0.5% CMC/0.25% tween-20 (vehicle of compound of the invention) and saline (vehicle of IL2); Group 2: (control IL2) received 0.5% CMC/0.25% tween-20 and injection of IL2; Group 3: Experimental group (Compound of the invention Dose 1) received a compound of the invention and injection of IL2; Group 4: Experimental group (Compound of the invention Dose 2) received a compound of the invention and injection of IL2; Group 5: Experimental group (Compound of the invention Dose 3) received a compound of the invention and injection of IL2; Group 6: Reference group received reference compound dexamethasone and injection of IL2
Inhibition of lymphocyte recruitment was calculated as follows:
Where Ly 1=Number of lymphocytes in group 1 (E3/μl), Ly 2=Number of lymphocytes in group 2 (E3/μl), Ly X=Number of lymphocytes in group X (3-5) (E3/μl)
The dose of compound of the invention required to inhibit lymphocyte recruitment by 50% (ID50) was calculated using a curve-fitting routine.

Sequence of metalloelastase (MMP12) (P39900 106-470): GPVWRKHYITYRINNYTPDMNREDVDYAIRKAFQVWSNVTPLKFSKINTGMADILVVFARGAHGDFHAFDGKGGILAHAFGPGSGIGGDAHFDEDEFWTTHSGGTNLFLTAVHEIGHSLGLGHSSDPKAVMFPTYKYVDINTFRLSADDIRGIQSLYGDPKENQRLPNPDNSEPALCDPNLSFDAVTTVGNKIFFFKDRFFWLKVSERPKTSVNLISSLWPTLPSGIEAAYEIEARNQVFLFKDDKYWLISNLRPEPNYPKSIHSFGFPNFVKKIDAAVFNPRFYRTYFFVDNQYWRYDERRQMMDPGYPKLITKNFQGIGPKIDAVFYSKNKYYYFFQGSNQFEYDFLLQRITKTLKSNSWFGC

- pIC50 (metalloelastase (MMP12)): > 7.00
Compound: CC(C)C[C@@H](C(=O)N[C@H](c1noc(-c2cccs2)n1)C(C)(C)C)[C@H](O)C(=O)NO [Example 13, 2S-Hydroxy-3R-[1S-(5-thiophen-2-yl-[1,2,4]oxadiazol-3-yl)-2,2-dimethyl-propylcarbamoyl]-5-methyl Hexanohydroxamic Acid]
- ID50 for inhibition of IL2-induced peritoneal recruitment of lymphocytes ([1]; Oral route): 1 mg/kg
- ID50 for inhibition of IL2-induced peritoneal recruitment of lymphocytes ([1]; Subcutaneous route): 0.1 mg/kg
